Measured values from US20040180855A1, “Methods of treating thrombosis with reduced risk of increased bleeding times” (priority 2003, published 2004).

Legend:
[1] = tested on: thrombosis and bleeding time in anesthetized rats; experiment: Differential effect on thrombosis inhibition and bleeding time prolongation (FIG. 7); format: in vivo, rat; settings: versus thrombin and FXa inhibitors (16A, 16B)
Protocol: FIG. 7 reports an analysis of the differential effect on thrombosis inhibition and bleeding time prolongation in anesthetized rats for the Factor XIa inhibitor, as compared with the “direct acting” thrombin and FXa active site inhibitors, namely, compounds 16A and 16B (thrombin and FXa active site inhibitors). The thrombin inhibitor (open symbols), FXa inhibitor (dotted symbols) and FXIa inhibitor (line symbols) were tested for effects on arterial thrombosis (squares), venous thrombosis (triangles) and bleeding time (circles) in rat models. Compounds were administered as loading plus sustaining infusion and the total dose is given on the x-axis.

Human TF:FVIIa = target: T1, Human TF:FVIIa (Homo sapiens, UniProt P08709); experiment: Selectivity assay TF:FVIIa; format: biochemical; settings: Table 3
T1 construct: purchased Enzyme Research Labs (FVIIa); Dade (Innovin, tissue factor)
T1 sequence (P08709 213-466 limits assumed): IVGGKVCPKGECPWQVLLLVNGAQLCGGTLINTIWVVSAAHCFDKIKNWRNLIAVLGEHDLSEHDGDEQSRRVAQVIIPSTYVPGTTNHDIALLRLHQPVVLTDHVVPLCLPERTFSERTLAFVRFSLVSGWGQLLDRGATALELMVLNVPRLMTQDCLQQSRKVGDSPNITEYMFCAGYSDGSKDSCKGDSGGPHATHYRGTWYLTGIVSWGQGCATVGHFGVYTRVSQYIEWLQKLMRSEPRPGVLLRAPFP
T1 sequence (P08709 61-212 partner limits assumed): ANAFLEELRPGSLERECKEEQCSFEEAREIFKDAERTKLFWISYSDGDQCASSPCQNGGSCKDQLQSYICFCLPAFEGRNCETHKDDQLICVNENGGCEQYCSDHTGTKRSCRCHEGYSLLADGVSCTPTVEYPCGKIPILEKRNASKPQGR
T1 sequence (P13726 33-295 partner): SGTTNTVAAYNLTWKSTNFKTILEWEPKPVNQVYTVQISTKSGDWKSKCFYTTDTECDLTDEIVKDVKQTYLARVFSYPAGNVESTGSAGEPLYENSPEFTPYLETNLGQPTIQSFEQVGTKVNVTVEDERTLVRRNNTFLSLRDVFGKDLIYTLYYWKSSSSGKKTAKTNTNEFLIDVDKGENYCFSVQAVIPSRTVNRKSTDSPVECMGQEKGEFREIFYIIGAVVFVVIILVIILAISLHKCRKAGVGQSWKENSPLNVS
Protocol: Human TF:FVIIa activity was measured using isolated human FVIIa (Enzyme Research Labs) in the presence of recombinant human tissue Factor (Dade Innovin) in a buffer containing 20 mM HEPES, 150 mM NaCl, 5mM CaCl2, 1 mM CHAPS and 1 mg/mL PEG 6000 (pH to 7.4).

FIXa = target: T2, FIXa (Homo sapiens, UniProt P00740); experiment: Selectivity assay FIXa; format: biochemical; settings: Table 3
T2 construct: purchased American Diagnostica
T2 sequence (P00740 227-461 limits assumed): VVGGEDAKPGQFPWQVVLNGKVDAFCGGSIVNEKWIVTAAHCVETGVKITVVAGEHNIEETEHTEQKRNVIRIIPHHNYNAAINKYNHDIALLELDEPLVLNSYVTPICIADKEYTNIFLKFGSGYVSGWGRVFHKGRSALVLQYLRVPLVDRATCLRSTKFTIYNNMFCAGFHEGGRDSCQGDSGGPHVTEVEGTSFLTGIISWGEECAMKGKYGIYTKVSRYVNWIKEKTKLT
T2 sequence (P00740 47-191 partner limits assumed): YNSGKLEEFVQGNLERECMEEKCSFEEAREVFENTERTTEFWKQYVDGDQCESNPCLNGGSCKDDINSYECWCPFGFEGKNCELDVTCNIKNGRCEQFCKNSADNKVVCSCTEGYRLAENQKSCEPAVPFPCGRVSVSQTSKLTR

[2] = tested on: stasis-VT (vena cava thrombosis); experiment: Venous thrombosis, stasis VT model; format: in vivo; settings: rat stasis VT
Protocol: General Surgical Preparation Male Sprague Dawley rats (310 to 390 g) were anesthetized with Na-pentobarbital (50 mg/kg i.p.). The left jugular vein was cannulated with PE-50 tubing for drug administration, and the trachea was intubated with PE-205 tubing to ensure airway patency. […] Statistical Analysis In the venous and arterial thrombosis procedures, treatment effects on thrombus weight, baseline blood flow, and average blood flow during thrombosis were determined by analysis of variance with Dunnett's test for comparison to the vehicle group. […] Treatment effects on bleeding times were determined by analysis of variance with Dunnett's test for comparison to the vehicle group. Both post-treatment and pre-treatment bleeding times and the relative bleeding time increases in sec were analyzed. […]

rat plasma = experiment: PT clotting time, rat plasma; format: biochemical; settings: up to 100 μM
Protocol: The term “PT” time as used herein refers to prothrombin times which is intended to refer to the time elapsed between formation of an assay solution and detection of clot formation in the assay solution with use of a PT assay, i.e., an assay employing thromboplastin reagents that are used for evaluating blood coagulation associated with the extrinsic pathway.
PT and APTT clotting times were determined as described in Balasubramanian et al., J. Med. Chem., Vol. 36 (1993), at pp. 300-03, incorporated herein by reference. The whole blood aggregation response of rat platelets to collagen was determined using the impedance procedure for a Model 560-CA Chrono-Log aggregometer (Havertown, Pa.).

- separation between bleeding time prolongation and efficacy in venous and arterial thrombosis [1]: substantially greater separation
- IC50 (Human TF:FVIIa): 0.486 µM
- IC50 (FIXa): 17.4 µM
SMILES: CC(C)(C)NC(=O)N1CCN(C(=O)N2C(=O)[C@H](CCCNC(=N)N)[C@H]2C(=O)O)CC1 [Example 4]
- effect on thrombus weight ([2]; i.v. 2+2 mg/kg+mg/kg/hr): little effect
- reduction in thrombus weight ([2]; i.v. 6+6 mg/kg+mg/kg/hr, FIG. 4): 64%
- Clotting time PT (rat), concentration that doubles clotting time (rat plasma): >100 µM
